# Results from patent US20210290644A1, “COMPOUNDS AND METHODS FOR TREATING FUNGAL INFECTIONS” (Amplyx Pharmaceuticals, Inc., priority 2018, published 2021).
# Values joined by “and” are separate entries in the source; they are usually repeats but may differ in a detail not shown here. Equal values may be shown once.
# Columns and labels:
# clinical = conditions: human, plasma, po, 400 mg
# [1] = Study #1 Phase 1: plasma and urine pharmacokinetics of Compound 1 and Compound 1A after IV infusion of Compound 1 (SAD, MAD, loading regimen); conditions: both, human
# [2] = plasma, 30 mg, Cohort 2: Compound 1 30 mg/3 hr IV, single dose, geometric mean [geometric %CV]
# [3] = plasma, 100 mg, Cohort 3: Compound 1 100 mg/3 hr IV, single dose, geometric mean [geometric %CV]
# [4] = plasma, 200 mg, Cohort 4: Compound 1 200 mg/3 hr IV, single dose, geometric mean [geometric %CV]
# [5] = plasma, 275 mg, Cohort 5: Compound 1 275 mg/3 hr IV, single dose, geometric mean [geometric %CV]
structure (smiles),measurement,setting,value
Nc1ncccc1-c1cc(Cc2ccc(COc3ccccn3)cc2)no1 [Compound 1A],AUC(0-inf),clinical,177000 ng·h/mL
same,CL/F,clinical,0.418 mL/min/kg
same,Cmax,clinical,4250 ng/mL
same,Vd/F,clinical,161 L and 2.35 L/kg
same,half-life,clinical,64.7 h
same,Vd,"[1]; in vivo, 10 mg",1.53 L/kg
same,Vd,"[1]; in vivo, 50 mg",188 L
same,AUC(0-t),"[1]; in vivo, 200 mg",76000 ng·h/mL
same,AUC(0-t),"[1]; plasma, 10 mg, AUC(0-24), Cohort 1: Compound 1 10 mg/3 hr IV, single dose, geometric mean [geometric %CV]",1540 ng·h/mL
same,AUC(0-t),"[1]; plasma, 10 mg, AUC(0-t), Cohort 1: Compound 1 10 mg/3 hr IV, single dose, geometric mean [geometric %CV]",2380 ng·h/mL
same,AUC(0-inf),"[1]; plasma, 10 mg, Cohort 1: Compound 1 10 mg/3 hr IV, single dose, geometric mean [geometric %CV]",4050 ng·h/mL
same,Tmax,"[1]; plasma, 10 mg, Cohort 1: Compound 1 10 mg/3 hr IV, single dose, median",3 h
same,Vd,"[1]; plasma, 10 mg, Vz, Cohort 1: Compound 1 10 mg/3 hr IV, single dose, geometric mean [geometric %CV]",107 L
same,AUC(0-t),"[1]; plasma, 30 mg, AUC(0-24), Cohort 2: Compound 1 30 mg/3 hr IV, single dose, geometric mean [geometric %CV]",4320 ng·h/mL
same,AUC(0-t),"[1]; plasma, 30 mg, AUC(0-t), Cohort 2: Compound 1 30 mg/3 hr IV, single dose, geometric mean [geometric %CV]",14100 ng·h/mL
same,AUC(0-inf),[1]; [2],16600 ng·h/mL
same,Cmax,[1]; [2],477 ng/mL
same,Tmax,"[1]; plasma, 30 mg, Cohort 2: Compound 1 30 mg/3 hr IV, single dose, median",3 h
same,Vd,"[1]; plasma, 30 mg, Vz, Cohort 2: Compound 1 30 mg/3 hr IV, single dose, geometric mean [geometric %CV]",121 L and 1.72 L/kg
same,AUC(0-t),"[1]; plasma, 50 mg, AUC(0-24), Cohort 7: Compound 1 50 mg/3 hr IV QD × 14 days, Day 1, geometric mean",6390 ng·h/mL
same,AUC(0-t),"[1]; plasma, 50 mg, AUC(0-24), Cohort 7: Compound 1 50 mg/3 hr IV QD × 14 days, Day 7, geometric mean",17600 ng·h/mL
same,AUC(0-t),"[1]; plasma, 50 mg, AUC(0-24), Cohort 7: Compound 1 50 mg/3 hr IV QD × 14 days, Day 14, geometric mean",20300 ng·h/mL
same,Cmax,"[1]; plasma, 50 mg, Cohort 7: Compound 1 50 mg/3 hr IV QD × 14 days, Day 1, geometric mean",669 ng/mL
same,Cmax,"[1]; plasma, 50 mg, Cohort 7: Compound 1 50 mg/3 hr IV QD × 14 days, Day 7, geometric mean",1090 ng/mL
same,Cmax,"[1]; plasma, 50 mg, Cohort 7: Compound 1 50 mg/3 hr IV QD × 14 days, Day 14, geometric mean",1180 ng/mL
same,Tmax,"[1]; plasma, 50 mg, Cohort 7: Compound 1 50 mg/3 hr IV QD × 14 days, Day 1, median",3 h
same,Tmax,"[1]; plasma, 50 mg, Cohort 7: Compound 1 50 mg/3 hr IV QD × 14 days, Day 7, median",3 h
same,Tmax,"[1]; plasma, 50 mg, Cohort 7: Compound 1 50 mg/3 hr IV QD × 14 days, Day 14, median",3 h
same,Vd,"[1]; plasma, 50 mg, Vz, Cohort 7: Compound 1 50 mg/3 hr IV QD × 14 days, Day 14, geometric mean",2.44 L/kg
same,AUC(0-t),"[1]; plasma, 100 mg, AUC(0-24), Cohort 3: Compound 1 100 mg/3 hr IV, single dose, geometric mean [geometric %CV]",14400 ng·h/mL
same,AUC(0-t),"[1]; plasma, 100 mg, AUC(0-t), Cohort 3: Compound 1 100 mg/3 hr IV, single dose, geometric mean [geometric %CV]",47400 ng·h/mL
same,AUC(0-inf),[1]; [3],50400 ng·h/mL
same,Cmax,[1]; [3],1440 ng/mL
same,Tmax,"[1]; plasma, 100 mg, Cohort 3: Compound 1 100 mg/3 hr IV, single dose, median",3 h
same,Vd,"[1]; plasma, 100 mg, Vz, Cohort 3: Compound 1 100 mg/3 hr IV, single dose, geometric mean [geometric %CV]",115 L and 1.88 L/kg
same,AUC(0-t),"[1]; plasma, 150 mg, AUC(0-24), Cohort 8: Compound 1 150 mg/3 hr IV QD × 14 days, Day 1, geometric mean",19400 ng·h/mL
same,AUC(0-t),"[1]; plasma, 150 mg, AUC(0-24), Cohort 8: Compound 1 150 mg/3 hr IV QD × 14 days, Day 7, geometric mean",48700 ng·h/mL
same,Cmax,"[1]; plasma, 150 mg, Cohort 8: Compound 1 150 mg/3 hr IV QD × 14 days, Day 1, geometric mean",1860 ng/mL
same,Cmax,"[1]; plasma, 150 mg, Cohort 8: Compound 1 150 mg/3 hr IV QD × 14 days, Day 7, geometric mean",3090 ng/mL
same,Tmax,"[1]; plasma, 150 mg, Cohort 8: Compound 1 150 mg/3 hr IV QD × 14 days, Day 1, median",3 h
same,Tmax,"[1]; plasma, 150 mg, Cohort 8: Compound 1 150 mg/3 hr IV QD × 14 days, Day 7, median",3 h
same,Tmax,"[1]; plasma, 150 mg, Cohort 8: Compound 1 150 mg/3 hr IV QD × 14 days, Day 14, median",3.02 h
same,AUC(0-t),"[1]; plasma, 200 mg, AUC(0-24), Cohort 4: Compound 1 200 mg/3 hr IV, single dose, geometric mean [geometric %CV]",20700 ng·h/mL
same,AUC(0-inf),[1]; [4],83200 ng·h/mL
same,Cmax,[1]; [4],2410 ng/mL
same,Tmax,"[1]; plasma, 200 mg, Cohort 4: Compound 1 200 mg/3 hr IV, single dose, median",3 h
same,Vd,"[1]; plasma, 200 mg, Vz, Cohort 4: Compound 1 200 mg/3 hr IV, single dose, geometric mean [geometric %CV]",178 L and 2.46 L/kg
same,AUC(0-t),"[1]; plasma, 275 mg, AUC(0-24), Cohort 5: Compound 1 275 mg/3 hr IV, single dose, geometric mean [geometric %CV]",37100 ng·h/mL
same,AUC(0-t),"[1]; plasma, 275 mg, AUC(0-t), Cohort 5: Compound 1 275 mg/3 hr IV, single dose, geometric mean [geometric %CV]",114000 ng·h/mL
same,AUC(0-inf),[1]; [5],120000 ng·h/mL
same,Cmax,[1]; [5],3960 ng/mL
same,Tmax,"[1]; plasma, 275 mg, Cohort 5: Compound 1 275 mg/3 hr IV, single dose, median",3 h
same,Vd,"[1]; plasma, 275 mg, Vz, Cohort 5: Compound 1 275 mg/3 hr IV, single dose, geometric mean [geometric %CV]",123 L and 1.75 L/kg
same,AUC(0-t),"[1]; plasma, 300 mg, AUC(0-24), Cohort 9: Compound 1 300 mg/3 hr IV QD × 14 days, Day 1, geometric mean",37100 ng·h/mL
same,AUC(0-t),"[1]; plasma, 300 mg, AUC(0-24), Cohort 9: Compound 1 300 mg/3 hr IV QD × 14 days, Day 7, geometric mean",104000 ng·h/mL
same,AUC(0-t),"[1]; plasma, 300 mg, AUC(0-24), Cohort 9: Compound 1 300 mg/3 hr IV QD × 14 days, Day 14, geometric mean",118000 ng·h/mL
same,Cmax,"[1]; plasma, 300 mg, Cohort 9: Compound 1 300 mg/3 hr IV QD × 14 days, Day 1, geometric mean",3690 ng/mL
same,Cmax,"[1]; plasma, 300 mg, Cohort 9: Compound 1 300 mg/3 hr IV QD × 14 days, Day 7, geometric mean",6650 ng/mL
same,Cmax,"[1]; plasma, 300 mg, Cohort 9: Compound 1 300 mg/3 hr IV QD × 14 days, Day 14, geometric mean",7520 ng/mL
same,Tmax,"[1]; plasma, 300 mg, Cohort 9: Compound 1 300 mg/3 hr IV QD × 14 days, Day 1, median",3 h
same,Tmax,"[1]; plasma, 300 mg, Cohort 9: Compound 1 300 mg/3 hr IV QD × 14 days, Day 7, median",3 h
same,Tmax,"[1]; plasma, 300 mg, Cohort 9: Compound 1 300 mg/3 hr IV QD × 14 days, Day 14, median",3.02 h
same,Vd,"[1]; plasma, 300 mg, Vz, Cohort 9: Compound 1 300 mg/3 hr IV QD × 14 days, Day 14, geometric mean",148 L and 2.22 L/kg
same,Tmax,"[1]; plasma, 350 mg, Cohort 6: Compound 1 350 mg/3 hr IV, single dose, median",3 h
same,AUC(0-t),"[1]; plasma, 600 mg, AUC(0-24), Cohort 10: Compound 1 600 mg/3 hr IV QD × 14 days, Day 1, geometric mean",72700 ng·h/mL
same,AUC(0-t),"[1]; plasma, 600 mg, AUC(0-24), Cohort 10: Compound 1 600 mg/3 hr IV QD × 14 days, Day 7, geometric mean",217000 ng·h/mL
same,AUC(0-t),"[1]; plasma, 600 mg, AUC(0-24), Cohort 10: Compound 1 600 mg/3 hr IV QD × 14 days, Day 14, geometric mean",245000 ng·h/mL
same,AUC(0-t),"[1]; plasma, 600 mg, AUC(0-24), Cohort 12 loading regimen: Compound 1 600 mg/1 hr IV QD, Day 4, geometric mean",219000 ng·h/mL
